From patent US20040236110A1, “Substituted 3-pyridyl indoles and indazoles as c17,20 lyase inhibitors” (priority 2001, published 2004) come the findings set out here.

In general, melting point refers to the temperature, or range, at which the solid turns liquid. On to `N#Cc1ccccc1-n1ccc2cc(-c3cccnc3)ccc21` [Example 58, 1-(2-Cyanophenyl)-5-(3-pyridyl)-1H-indole], for which the melting point lay within 138 to 141 °C.
